# Measurements as given in patent US10590456B2, “Ribosomes with tethered subunits” (Northwestern University, priority 2014, dated 2020).
# Tested on: wild-type ribosomes
# Assay: Antibiotic inhibition of orthogonal sf-gfp translation by wild-type ribosomes in cell-free system
# Type: biochemical, E. coli
# Conditions: pactamycin 100 μM
# Description: Ribosomes (wild-type) or oRibo-T (mixed with wild-type ribosomes) were prepared from SQ171fg cells transformed with pAM552 or poRibo-T1, respectively. An orthogonal sf-gfp gene was PCR amplified from the plasmid pT7oGFP using primers […] (SEQ ID NO: 227) and […] (SEQ ID NO: 228). The transcription-translation reaction was carried out in Δ(ribosome, amino acid, tRNA) PURExpress system as described above. The 7.5 μl reactions were supplemented with 18.75 ng DNA template and 7.5 pmol ribosomes and when needed, clindamycin or pactamycin were added to the reactions to the final concentrations of 50 μM or 100 μM respectively.
structure (smiles),measurement,value
CC(=O)c1cccc(N[C@H]2[C@H](N)[C@@](NC(=O)N(C)C)([C@H](C)O)[C@@](C)(O)[C@@]2(O)COC(=O)c2c(C)cccc2O)c1 [Pactamycin],inhibition of the activity of wild-type ribosomes in the PURE translation system,completely inhibited
